Measured values: US20070092467A1, “Oxyacetamide compounds useful for stimulating or inducing the growth and/or retarding the loss of keratin fibers” (L'OREAL, priority 2004, published 2007)

Biological target: T1, PGF synthase (Homo sapiens, UniProt P42330)
T1 construct: made in house
T1 sequence (P42330 1-323): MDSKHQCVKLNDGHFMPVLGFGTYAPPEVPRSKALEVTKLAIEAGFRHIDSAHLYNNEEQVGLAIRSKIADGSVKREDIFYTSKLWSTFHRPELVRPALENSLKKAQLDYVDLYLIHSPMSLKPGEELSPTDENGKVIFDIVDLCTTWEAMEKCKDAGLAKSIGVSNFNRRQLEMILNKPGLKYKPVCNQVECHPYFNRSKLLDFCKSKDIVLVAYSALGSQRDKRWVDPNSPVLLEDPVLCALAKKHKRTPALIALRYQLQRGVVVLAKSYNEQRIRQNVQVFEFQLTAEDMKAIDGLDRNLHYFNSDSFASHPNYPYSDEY
Assay: Test on PGF synthase (spectrophotometric, 340 nm, maximum reaction rate)
Assay type: biochemical
Details: IC50fs; 37° C., pH 6.5; read-out: Inhibition of PGFS IC50
Experimental: (§1) For the purposes of the test, this suspension is thawed and stored in ice.
(§2) 0.950 mL of this buffer (brought to 37° C. beforehand) is introduced into the cuvette of a spectrophotometer (Perkin-Elmer, Lambda 2) thermostatically maintained at 37° C., the measuring wavelength of which is set at 340 nm. 0.05 mL of enzymatic suspension at 37° C. is introduced into the cuvette concomitantly with the recording (corresponding to a reduction in the optical density at 340 nm). The maximum reaction rate is recorded.

For `O=C(COc1cccc(Cl)c1)NCc1ccco1` [Compound 23], the IC50 was > 50 µM.

Same assay, conditions: compound at 50 μM; read-out: Inhibition of PGFS % inhibition at 50 μM

Point of comparison: `O=C(COc1ccccc1)NCc1ccccc1` [Compound 24], inhibition at 50 µM 4%. Against it:
- O=C(COC1CCCCC1)NCc1ccccc1 [Compound 21] — higher, 24%
- O=C(COc1cccc(Cl)c1)NCc1ccco1 [Compound 23] — higher, 25%

Biological target: T2, type-1 15-PGDH (Homo sapiens, UniProt P15428)
T2 construct: made in house
T2 sequence (P15428 1-266): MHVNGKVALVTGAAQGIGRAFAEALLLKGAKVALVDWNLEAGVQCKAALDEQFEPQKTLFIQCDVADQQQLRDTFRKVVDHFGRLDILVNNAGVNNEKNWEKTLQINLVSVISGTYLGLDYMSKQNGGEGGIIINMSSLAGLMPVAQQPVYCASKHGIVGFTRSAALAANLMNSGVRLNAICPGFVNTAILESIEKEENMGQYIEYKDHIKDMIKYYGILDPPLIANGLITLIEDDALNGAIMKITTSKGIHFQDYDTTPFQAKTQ
Assay: Test on type-1 15-PGDH (spectrophotometric, 340 nm, maximum reaction rate)
Assay type: biochemical
Details: IC50dh; 37° C., pH 7.4; read-out: Inhibition of 15-PGDH IC50
Experimental: 1) Test on type-1 15-PGDH:
as §1
as §2, with “0.965 ml” for “0.950 mL”, “0.035 ml” for “0.05 mL”, “an increase” for “a reduction”

`O=C(COc1cccc(Cl)c1)NCc1ccco1` [Compound 23] showed an IC50 of 16 µM.

Same assay, conditions: compound at 50 μM

Point of comparison: `O=C(COc1ccccc1)NCc1ccccc1` [Compound 24], inhibition at 50 µM 55%. Against it:
- O=C(COC1CCCCC1)NCc1ccccc1 [Compound 21] — higher, 63%
- CCCCCCOCC(=O)NCc1ccccc1 [Compound 22] — lower, 47%
- O=C(COc1cccc(Cl)c1)NCc1ccco1 [Compound 23] — higher, 80%
- O=C(COc1cccc(Cl)c1)NCc1ccccc1 [Compound 25] — lower, 50%
- O=C(COc1ccc(Cl)cc1)NCc1ccccc1 [Compound 26] — lower, 30%

Same assay, conditions: compound at 100 μM; 37° C., pH 7.4, PGE2 50 μM, β-NAD 1.5 mM

Point of comparison: `O=C(COc1ccccc1)NC[C@@H]1CCCO1` [Compound 29], inhibition at 100 µM 54%. Against it:
- O=C(COCc1ccccc1)NC[C@@H]1CCCO1 (stereo in doubt) [Compound 14, 2-benzyloxy-N-(tetrahydrofuran-2-ylmethyl)acetamide] — lower, 50%
- Cc1cccc(C)c1NC(=O)COc1cccc2cccnc12 [Compound 1, N-(2,6-dimethylphenyl)-2-(quinolin-8-yloxy)acetamide] — lower, 49%
- O=C(COc1cccc2cccnc12)Nc1ccccc1Cl [Compound 2] — higher, 115%
- O=C(COc1cccc2cccnc12)Nc1ccccc1C(F)(F)F [Compound 3, 2-(quinolin-8-yloxy)-N-(2-trifluoromethylphenyl)acetamide] — higher, 128%
- CCOC(=O)c1ccc(NC(=O)COc2ccc(C(C)=O)cc2)cc1 [Compound 4, 4-[2-(4-Acetylphenoxy)acetylamino]benzoic acid ethyl] — lower, 49%
- Cc1nc2cc(OCC(=O)Nc3ccc(OC(F)(F)F)cc3)ccc2s1 [Compound 5, 2-(2-Methyl-benzothiazol-5-yloxy)-N-(4-trifluoromethoxy-phenyl) acetamide] — lower, 53%
- O=C(COc1ccc(-n2ccnc2)cc1)Nc1ccccc1Cl [Compound 6, N-(2-Chloro-phenyl)-2-(4-imidazol-1-yl-phenoxy)-acetamide] — the same, 54%
- O=C(COc1ccc2c(c1)C(=O)c1ccccc1-2)Nc1cccc(C(F)(F)F)c1 [Compound 7, 2-(9-Oxo-9H-fluoren-2-yloxy)-N-(3-trifluoromethyl-phenyl) acetamide] — higher, 61%
- O=C(COc1ccc2c(c1)C(=O)c1ccccc1-2)Nc1ccc(C(F)(F)F)cc1 [Compound 8, 2-(9-Oxo-9H-fluoren-2-yloxy)-N-(4-trifluoromethyl-phenyl) acetamide] — higher, 65%
- CCCCCCc1ccc(NC(=O)COc2ccc3sc(C)nc3c2)cc1 [Compound 9, N-(4-Hexyl-phenyl)-2-(2-methyl-benzothiazol-5-yloxy) acetamide] — higher, 69%
- O=C(COc1ccc(-n2cccc2)cc1)Nc1ccccc1C(F)(F)F [Compound 10] — higher, 71%
- O=C(COc1ccc2oc3ccccc3c2c1)Nc1ccc(OC(F)(F)F)cc1 [Compound 11, 2-(Dibenzofuran-2-yloxy)-N-(4-trifluoromethoxy-phenyl) acetamide] — higher, 74%
- O=C(COc1ccc(-n2ccnc2)cc1)Nc1ccccc1C(F)(F)F [Compound 12, 2-(4-imidazol-1-yl-phenoxy)-N-(2-trifluoromethyl-phenyl) acetamide] — higher, 125%
- COc1cc(C(C)=O)ccc1OCC(=O)Nc1ccccc1C(F)(F)F [Compound 13, 2-(4-Acetyl-2-methoxy-phenoxy)-N-(2-trifluoromethyl-phenyl) acetamide] — higher, 126%
- Cc1ccc(CNC(=O)COCc2ccccc2)o1 [Compound 15, 2-Benzyloxy-N-(5-methyl-furan-2-ylmethyl)-acetamide] — lower, 51%
- O=C(COCc1ccccc1)NC1CCCC1 [Compound 16, 2-Benzyloxy-N-cyclopentylacetamide] — higher, 76%
- CC(C)(C)c1ccc(OCC(=O)NC[Si](C)(C)C)cc1 [Compound 17, 2-(4-tert-Butyl-phenoxy)-N-trimethylsilanylmethyl-acetamide] — lower, 50%
- C[Si](C)(C)CNC(=O)COCc1ccccc1 [Compound 18, 2-Benzyloxy-N-trimethylsilanylmethyl-acetamide] — higher, 88%
- C[Si](C)(C)CNC(=O)COc1ccccc1 [Compound 19, 2-Phenoxy-N-trimethylsilanylmethyl-acetamide] — higher, 95%
- CSCCNC(=O)COc1ccccc1 [Compound 20] — higher, 85%
- O=C(COCc1ccccc1)NCc1ccccc1 [Compound 27] — lower, 48%
- N#Cc1ccc(-c2ccc(OCC(=O)Nc3cccc([N+](=O)[O-])c3)cc2)cc1 [Compound 28] — the same, 54%
- CCCCCCNC(=O)COc1ccccc1 [Compound 31] — higher, 57%
- CC(=O)c1ccc(OCC(=O)Nc2ccccc2C(F)(F)F)cc1 [Compound 32] — higher, 59%
- O=C(COc1ccccc1)NCc1ccccc1 [Compound 33] — higher, 61%
- O=C(COc1cccc2cccnc12)Nc1cccc([N+](=O)[O-])c1 [Compound 34] — higher, 69%
- O=C(COc1ccc(-c2ccccc2)cc1)Nc1ccccc1C(F)(F)F [Compound 35] — higher, 70%
